The target of one series is T1, hDP (Homo sapiens, UniProt Q13258).
T1 sequence (Q13258 1-359): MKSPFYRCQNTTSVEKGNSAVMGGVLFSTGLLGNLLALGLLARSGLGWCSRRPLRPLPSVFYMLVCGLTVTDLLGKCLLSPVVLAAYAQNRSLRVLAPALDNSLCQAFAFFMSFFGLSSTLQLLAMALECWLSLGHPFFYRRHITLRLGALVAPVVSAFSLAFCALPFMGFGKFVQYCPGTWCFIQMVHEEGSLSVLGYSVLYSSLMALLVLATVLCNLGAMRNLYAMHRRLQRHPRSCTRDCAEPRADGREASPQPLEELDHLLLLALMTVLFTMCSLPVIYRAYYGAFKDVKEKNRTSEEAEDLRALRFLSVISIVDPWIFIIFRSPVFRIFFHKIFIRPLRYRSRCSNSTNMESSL
Nature of the series: Other receptors functional assay, hDP. In kind it is cell-based. The text has this: (§1) U.S. Patent Application Publication No. 20070129552, incorporated by reference herein, describes the methods used to obtain the in vitro data in the table below.

Series [1] has as its target T2, EP2 (Homo sapiens, UniProt P43116). Nature of the series: EP2 flipr functional assay. In kind it is cell-based.
From the text: as §1

A further series addresses T3, hEP3A (Homo sapiens, UniProt P43115).
T3 sequence (P43115 1-390): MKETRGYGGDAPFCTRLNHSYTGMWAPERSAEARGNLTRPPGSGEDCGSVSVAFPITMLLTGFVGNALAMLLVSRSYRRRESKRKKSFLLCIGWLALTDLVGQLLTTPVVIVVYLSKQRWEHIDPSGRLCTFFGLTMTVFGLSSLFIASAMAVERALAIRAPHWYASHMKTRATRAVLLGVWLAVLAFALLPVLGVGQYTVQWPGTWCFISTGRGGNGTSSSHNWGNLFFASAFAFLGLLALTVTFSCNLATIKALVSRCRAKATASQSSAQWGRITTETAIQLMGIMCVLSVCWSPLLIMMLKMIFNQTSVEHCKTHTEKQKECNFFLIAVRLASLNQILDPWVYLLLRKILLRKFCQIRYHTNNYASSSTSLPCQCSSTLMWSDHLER
The series is described as follows: Other receptors functional assay, hEP3A. In kind it is cell-based.
From the text: as §1

Series [2] concerns the target T4, EP4 (Homo sapiens, UniProt P35408). The series is described as follows: EP4 binding (Ki).
From the text: as §1

For series [3], the target named is T2, EP2. Nature of the series: EP2 binding (Ki).
From the text: as §1

Series [4] concerns the target T4, EP4. Nature of the series: EP4 flipr functional assay. In kind it is cell-based.
From the text: as §1

In series [5] the test system is normotensive dogs. Nature of the series: Ocular surface hyperemia in normotensive dogs. In kind it is in vivo, dog. Particulars: 0.003%, once daily for 5 days, at 50 h. Here is the method:
(§2) U.S. Pat. No. 7,183,324 describes the methods used to obtain the in vitro results presented below.
(§3) Isopropyl 5-(3-((R)-3-(4-((S)-1-hydroxyhexyl)phenyl)-4-oxooxazolidin-2-yl)propyl)thiophene-2-carboxylate (12j) was tested in normotensive dogs at 0.003%, dosing once daily for 5 days. The maximum intraocular pressure (IOP) decrease from baseline was 5.4 mmHg (36%) at 54 h; the maximum ocular surface hyperemia (OSH) score was 1.75 at 50 h.

The subject of series [6] is normotensive dogs. Nature of the series: Intraocular pressure in normotensive dogs. The series is classed as in vivo, dog. As to conditions: 0.003%, once daily for 5 days, at 54 h. Here is the method: as §2, §3

Bounds are passed on as bounds.

T4 sequence (P35408 whole entry): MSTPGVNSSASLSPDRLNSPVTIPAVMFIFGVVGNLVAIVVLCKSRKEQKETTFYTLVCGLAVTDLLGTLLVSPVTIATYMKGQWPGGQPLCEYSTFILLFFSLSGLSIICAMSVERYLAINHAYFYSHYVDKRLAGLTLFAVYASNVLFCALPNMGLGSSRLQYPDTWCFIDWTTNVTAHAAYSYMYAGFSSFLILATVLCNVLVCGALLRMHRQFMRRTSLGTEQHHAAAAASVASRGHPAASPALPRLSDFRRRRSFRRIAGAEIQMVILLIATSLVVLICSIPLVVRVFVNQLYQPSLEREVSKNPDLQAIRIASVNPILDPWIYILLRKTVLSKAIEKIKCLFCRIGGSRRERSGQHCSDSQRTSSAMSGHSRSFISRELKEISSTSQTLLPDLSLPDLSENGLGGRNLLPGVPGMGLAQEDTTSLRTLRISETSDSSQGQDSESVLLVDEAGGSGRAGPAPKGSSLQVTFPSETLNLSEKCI
T2 sequence (P43116 whole entry): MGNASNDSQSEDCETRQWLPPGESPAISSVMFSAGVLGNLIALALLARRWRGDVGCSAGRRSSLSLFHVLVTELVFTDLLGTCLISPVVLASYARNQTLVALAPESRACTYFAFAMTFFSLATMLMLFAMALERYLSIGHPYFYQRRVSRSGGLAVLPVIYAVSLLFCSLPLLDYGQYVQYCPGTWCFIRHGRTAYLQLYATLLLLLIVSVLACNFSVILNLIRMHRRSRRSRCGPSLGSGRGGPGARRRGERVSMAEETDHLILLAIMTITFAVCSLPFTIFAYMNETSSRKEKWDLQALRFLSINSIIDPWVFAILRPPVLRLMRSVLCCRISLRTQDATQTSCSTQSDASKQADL

With `CCCCC[C@H](O)c1ccc(N2C(=O)CO[C@H]2CCCc2ccc(C(=O)O)s2)cc1` (single isomer, unassigned) [Example 3], the EC50 (usually the midpoint of the concentration-response curve) at hDP stood at 1970 nM; on EP2 [1], 82 nM; at hEP3A, 268 nM. The figures for the Ki at EP4 [2] and at EP2 [3] were more than 10 µM and 90 nM, respectively.

In the case of `CCCCC[C@H](O)c1ccc(N2C(=O)CO[C@@H]2CCCc2ccc(C(=O)O)s2)cc1` (single isomer, unassigned) [Example 4], the EC50 at hDP worked out at 73 nM; on EP2 [1] it was 1.2 nM; at hEP3A it was 4 nM. Further, the inhibition constant (Ki) (commonly a measure of affinity in units of concentration, obtained from inhibition or displacement) at EP4 [2] was more than 10 µM; at EP2 [3] it was 7 nM.

On to `CCCCCC(O)c1ccc(N2C(=O)CSC2CCCc2ccc(C(=O)O)s2)cc1` (stereo not drawn) [Example 1, 5-(3-(3-(4-(1-hydroxyhexyl)phenyl)-4-oxo-thiazolidin-2-yl)propyl)thiophene-2-carboxylic acid], for which the values for the EC50 at EP4 [4], on EP2 [1] and on hEP3A were more than 10 µM, 4400 nM and 8320 nM, respectively. Moreover, the Ki at EP4 [2] was found to be 1.46 µM; at EP2 [3] it was 17500 nM.

`CCCCCC(O)c1ccc(N2C(=O)COC2CCCc2ccc(C(=O)O)s2)cc1` (stereo not drawn) [Example 2, 5-(3-(3-(4-(1-hydroxyhexyl)phenyl)-4-oxo-oxazolidin-2-yl)propyl)thiophene-2-carboxylic acid]: the EC50 stood at 213 nM on hDP, 8 nM at EP2 [1] and 11 nM at hEP3A. The Ki on EP4 [2] is more than 10 µM; on EP2 [3], 14 nM.

On to `CCCCCCc1ccc(N2C(=O)COC2CCCc2ccc(C(=O)O)s2)cc1` (stereo not drawn) [Example 8, 5-(3-(3-(4-hexylphenyl)-4-oxooxazolidin-2-yl)propyl)thiophene-2-carboxylic acid], for which the EC50 on EP4 [4] came out at 12.6 µM; on hDP, 656 nM; at EP2 [1], 37 nM; on hEP3A it was 237 nM. In addition, the Ki at EP4 [2] was 2.13 µM; at EP2 [3], 3 nM.

In the case of `O=C(O)c1ccc(CCCC2OCC(=O)N2c2ccccc2)s1` (stereo not drawn) [Example 9, 5-(3-(4-oxo-3-phenyloxazolidin-2-yl)propyl)thiophene-2-carboxylic acid], the values for the EC50 at hDP and on EP2 [1] were more than 10000 nM and 3080 nM, respectively. For the same compound, the Ki on EP4 [2] is more than 10 µM; on EP2 [3], 680 nM.

Take `CCCCC[C@H](O)c1ccc(N2C(=O)CO[C@@H]2CCCc2ccc(C(=O)OC(C)C)s2)cc1` [Example 12j, Isopropyl 5-(3-((R)-3-(4-((S)-1-hydroxyhexyl)phenyl)-4-oxooxazolidin-2-yl)propyl)thiophene-2-carboxylate]: the “maximum ocular surface hyperemia (OSH) score” value in the series with normotensive dogs [5] came to 1.75. For the same compound, in the series with normotensive dogs [6], the “maximum intraocular pressure (IOP) decrease from baseline” value stood at 5.4 mmHg and the “maximum intraocular pressure (IOP) decrease from baseline, percent” value came out at 36%.

These data come from US7781465B2, “Therapeutic oxazolidinones and thiazolidinones” (Allergan, Inc., priority 2007, dated 2010).
